These results are taken from patent publication US12559474B2, “Triazine derivatives having virus replication inhibitory activity and pharmaceutical composition comprising the same” (priority 2021, dated 2026).

Where two headings read alike, the source gives them in different places.

One test has as its target SARS-CoV-2 3CL protease (Severe acute respiratory syndrome coronavirus 2, UniProt P0DTD1). Nature of the test: biochemical. As to conditions: 50% SARS-CoV-2 3CL protease inhibitory concentration, read-out: IC50.
The subject of another test is SARS-CoV-2. Nature of the test: microbe, parasite or virus in culture. The test is classed as cell-based. The following applies: Severe acute respiratory syndrome coronavirus 2, VeroE6/TMPRSS2, 72 h, 50% SARS-CoV-2 infected cell death inhibitory concentration, VeroE6/TMPRSS2 cells, 3 days culture.

As for `CNc1nc2cc(Cl)c(Nc3nc(=O)n(-c4cncc(C)c4)c(=O)n3Cc3ccc(F)c(C#N)c3)cc2o1` [II-0512], on SARS-CoV-2 3CL protease (given as class symbols), the IC50 was under 100 nM. In the test with SARS-CoV-2 (class symbols), this molecule showed a half-maximal effective concentration (EC50) of 1000 to 10000 nM.
The corresponding values for `N#Cc1cc(Cn2c(Nc3cc4cn(CC(F)F)nc4cc3F)nc(=O)n(-c3cncc(Cl)c3)c2=O)ccc1F` [II-0513] are under 100 nM and under 1000 nM.
On to `Cn1cnc(Cn2c(=O)nc(Nc3cc4c(C(F)F)n(C)nc4cc3Cl)n(Cc3cc(F)c(F)cc3F)c2=O)n1` [II-0514], for which, at SARS-CoV-2 3CL protease (given as class symbols), the IC50 was under 100 nM. The 50% effective concentration (EC50) in the test on SARS-CoV-2 (class symbols) lay within 1000 to 10000 nM.
As for `Cn1cnc(Cn2c(=O)nc(Nc3cc4cn(C)nc4cc3F)n(Cc3cc(Cl)c(F)cc3F)c2=O)n1` [II-0515], the IC50 at SARS-CoV-2 3CL protease (given as class symbols) was under 100 nM. Besides, the EC50 in the test on SARS-CoV-2 (class symbols) fell in the range of 1000 to 10000 nM.
The corresponding values for `CNc1nc2cc(Cl)c(Nc3nc(=O)n(-c4cncc(Cl)c4)c(=O)n3Cc3ccc(F)c(C#N)c3)cc2o1` [II-0516] are under 100 nM and 1000 to 10000 nM.
The corresponding values for `CNc1nc2cc(Cl)c(Nc3nc(=O)n(Cc4ncn(C)n4)c(=O)n3Cc3cc(F)c(F)cc3F)cc2o1` [II-0517] are under 100 nM and 1000 to 10000 nM.
Regarding `Cc1cncc(-n2c(=O)nc(Nc3cc4cn(CC(F)F)nc4cc3F)n(Cc3cc(F)c(F)c(F)c3)c2=O)c1` [II-0518], the half-maximal inhibitory concentration (IC50) at SARS-CoV-2 3CL protease (given as class symbols) was under 100 nM. In the test on SARS-CoV-2 (class symbols), this molecule showed an EC50 of 1000 to 10000 nM.
The corresponding values for `Cn1cnc(Cn2c(=O)nc(Nc3cc4cn(C)nc4cc3F)n(Cc3cc(F)c(F)cc3F)c2=O)n1` [II-0519] are under 100 nM and 1000 to 10000 nM.
The corresponding values for `COc1cc(F)c(F)cc1Cn1c(Nc2cc3cn(C)nc3cc2Cl)nc(=O)n(-c2cncc(C)c2)c1=O` [II-0520] are under 100 nM and 1000 to 10000 nM.
Take `Cc1cncc(-n2c(=O)nc(Nc3ccc4nn(CC(F)F)cc4c3)n(Cc3cc(C#N)ccc3C)c2=O)c1` [II-0521]: the IC50 on SARS-CoV-2 3CL protease (RapidFire MS) was found to be 3.4 nM. The molecule further gave an EC50 with SARS-CoV-2 (CellTiter-Glo 2.0) of 220 nM.
On the same counts, the results for `Cn1cnc(Cn2c(=O)nc(Nc3cc4c(cc3Cl)nc3n4CCN3)n(Cc3cc(Cl)c(F)cc3F)c2=O)n1` [II-0522] are 4.1 nM and 15000 nM.
As for `Cn1cc2cc(Nc3nc(=O)n(-c4cncc(Cl)c4)c(=O)n3Cc3cc(C#N)ccc3Cl)ccc2n1` [II-0523], on SARS-CoV-2 3CL protease (RapidFire MS), the IC50 stood at 11 nM. The midpoint of the response with SARS-CoV-2 (CellTiter-Glo 2.0), the EC50, lay at 240 nM.
Consider `Cc1cncc(-n2c(=O)nc(Nc3cc4sc(NCC(F)F)nc4cc3Cl)n(Cc3ccc(F)c(C#N)c3)c2=O)c1` [II-0524], for which the IC50 on SARS-CoV-2 3CL protease (given as class symbols) is under 100 nM. Further, in the test with SARS-CoV-2 (class symbols), the EC50 was in the range of 1000 to 10000 nM.
For the molecule `Cn1cc2cc(Nc3nc(=O)n(-c4cncc(Cl)c4)c(=O)n3Cc3ccc(F)c(C#N)c3)c(F)cc2n1` [II-0525], the IC50 at SARS-CoV-2 3CL protease (RapidFire MS) worked out at 16 nM. For the same molecule, the midpoint of the response in the test with SARS-CoV-2 (CellTiter-Glo 2.0), the EC50, lay at 533 nM.
With `Cc1cncc(-n2c(=O)nc(Nc3cc4sc(NCC(F)(F)F)nc4cc3Cl)n(Cc3ccc(F)c(C#N)c3)c2=O)c1` [II-0526], on SARS-CoV-2 3CL protease (given as class symbols), the IC50 was under 100 nM. In addition, in the test on SARS-CoV-2 (class symbols), the EC50 lay in the range of 1000 to 10000 nM.
On the same counts, the results for `Cn1cnc(Cn2c(=O)nc(Nc3cc4cn(C5CC5)nc4cc3Cl)n(Cc3cc(F)c(F)cc3F)c2=O)n1` [II-0527] are under 100 nM and under 1000 nM.
The corresponding values for `Cc1cncc(-n2c(=O)nc(Nc3cc4cn(C)nc4cc3F)n(Cc3cc(F)c(F)cc3F)c2=O)c1` [II-0528] are under 100 nM and under 1000 nM.
The corresponding values for `Cn1cnc(Cn2c(=O)nc(Nc3cc4sc(N)nc4cc3Cl)n(Cc3cc(Cl)c(F)cc3F)c2=O)n1` [II-0529] are under 100 nM and under 1000 nM.
Consider `Cc1cncc(-n2c(=O)nc(Nc3cc4cn(CC(F)F)nc4cc3Cl)n(Cc3cc(C#N)c(F)cn3)c2=O)c1` [II-0533], for which the IC50 on SARS-CoV-2 3CL protease (given as class symbols) is under 100 nM. The EC50 in the test with SARS-CoV-2 (class symbols) is 1000 to 10000 nM.
On the same counts, the results for `CNc1nc2cc(Cl)c(Nc3nc(=O)n(-c4cncc(C)c4)c(=O)n3Cc3cc(C#N)c(F)cn3)cc2s1` [II-0534] are under 100 nM and 1000 to 10000 nM.
On the same counts, the results for `Cc1cncc(-n2c(=O)nc(Nc3cc4cn(C)nc4cc3Cl)n(Cc3cc(C#N)c(F)cn3)c2=O)c1` [II-0535] are under 100 nM and under 1000 nM.
On the same counts, the results for `Cn1cnc(Cn2c(=O)nc(Nc3cc4sc(N)nc4cc3Cl)n(Cc3cc(F)c(F)cc3F)c2=O)n1` [II-0536] are under 100 nM and 1000 to 10000 nM.
`Cc1cncc(-n2c(=O)nc(Nc3cc4cn(C)nc4cc3Cl)n(Cc3cc(C#N)cnc3C)c2=O)c1` [II-0537]: the IC50 on SARS-CoV-2 3CL protease (given as class symbols) was under 100 nM. Further, the EC50 in the test on SARS-CoV-2 (class symbols) was in the range of 1000 to 10000 nM.
On the same counts, the results for `Cn1cc2cc(Nc3nc(=O)n(-c4cncc(Cl)c4)c(=O)n3Cc3cc(C#N)c(F)cn3)c(Cl)cc2n1` [II-0538] are under 100 nM and 1000 to 10000 nM.
The corresponding values for `Cc1cncc(-n2c(=O)nc(Nc3cc4cn(C)nc4cc3Cl)n(Cc3ccc(F)c(C#N)n3)c2=O)c1` [II-0539] are under 100 nM and 1000 to 10000 nM.
